Test results: ChEMBL document CHEMBL4665789, “Discovery of Novel pERK1/2- or β-Arrestin-Preferring 5-HT Receptor-Biased Agonists: Diversified Therapeutic-like versus Side Effect Profile” (J Med Chem, 2020)
One block for each compound: values may come before it. Calls of active or inactive are those of the source. The rule behind the calls is not given here.

Tests used:
[1] = Stability in rat liver microsomes assessed as parent compound remaining at 50 uM preincubated for 5 mins followed by NADPH addition and measured after 2 hrs by LC-MS analysis; type: ADME, Microsome; conditions: time 125 min, read-out: Stabilty
[2] = target: T1, 5-hydroxytryptamine receptor 1A (Homo sapiens, UniProt P08908); assay: Biased agonist activity at human 5-HT1A receptor stably expressed in CHO-K1 cells co-expressing Galpha16/GPCR assessed as increase in calcium mobilization measured for 30 secs in presence of coelenterazine by aequorin-reporter gene based luminescence assay; type: functional, cell-based
T1 sequence (P08908 whole entry): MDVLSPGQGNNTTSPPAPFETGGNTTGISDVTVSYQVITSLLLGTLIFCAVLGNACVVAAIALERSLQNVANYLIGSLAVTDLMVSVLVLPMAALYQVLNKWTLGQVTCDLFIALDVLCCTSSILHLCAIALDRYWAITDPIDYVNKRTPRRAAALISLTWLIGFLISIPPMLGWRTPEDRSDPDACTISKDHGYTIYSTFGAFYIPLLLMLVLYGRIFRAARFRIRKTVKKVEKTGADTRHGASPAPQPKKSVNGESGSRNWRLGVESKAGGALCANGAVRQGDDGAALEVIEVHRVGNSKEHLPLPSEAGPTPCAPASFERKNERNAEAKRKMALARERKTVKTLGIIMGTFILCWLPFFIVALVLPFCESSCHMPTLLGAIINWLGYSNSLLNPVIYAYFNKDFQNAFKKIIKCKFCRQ

[3] = target: T1, 5-hydroxytryptamine receptor 1A; assay: Biased agonist activity at human 5-HT1A receptor stably expressed in CHO-K1 cells assessed as increase in ERK1/2 phosphorylation after 15 mins by Alphalisa assay
[4] = target: T2, Adrenergic receptor alpha-1 (Rattus norvegicus, UniProt P15823+P23944+P43140); assay: Displacement of [3H]prazosin from alpha1 adrenergic receptor in rat cortex membranes measured after 30 mins by Microbeta2 scintillation counting method; type: cell membranes
T2 sequence (P15823 whole entry): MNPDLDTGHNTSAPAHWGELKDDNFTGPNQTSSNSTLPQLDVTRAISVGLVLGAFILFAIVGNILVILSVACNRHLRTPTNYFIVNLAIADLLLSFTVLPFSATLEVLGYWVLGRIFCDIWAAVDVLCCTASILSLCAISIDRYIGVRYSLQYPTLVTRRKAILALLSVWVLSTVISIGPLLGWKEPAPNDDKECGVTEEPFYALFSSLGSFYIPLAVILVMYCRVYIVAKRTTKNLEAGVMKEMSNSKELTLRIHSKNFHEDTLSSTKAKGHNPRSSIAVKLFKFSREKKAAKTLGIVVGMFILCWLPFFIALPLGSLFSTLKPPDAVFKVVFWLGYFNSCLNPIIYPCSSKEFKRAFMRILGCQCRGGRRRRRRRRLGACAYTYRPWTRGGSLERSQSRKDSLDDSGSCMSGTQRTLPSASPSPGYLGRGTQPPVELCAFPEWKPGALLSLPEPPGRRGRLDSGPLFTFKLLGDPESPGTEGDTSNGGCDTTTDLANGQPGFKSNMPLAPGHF
T2 sequence (P23944 whole entry): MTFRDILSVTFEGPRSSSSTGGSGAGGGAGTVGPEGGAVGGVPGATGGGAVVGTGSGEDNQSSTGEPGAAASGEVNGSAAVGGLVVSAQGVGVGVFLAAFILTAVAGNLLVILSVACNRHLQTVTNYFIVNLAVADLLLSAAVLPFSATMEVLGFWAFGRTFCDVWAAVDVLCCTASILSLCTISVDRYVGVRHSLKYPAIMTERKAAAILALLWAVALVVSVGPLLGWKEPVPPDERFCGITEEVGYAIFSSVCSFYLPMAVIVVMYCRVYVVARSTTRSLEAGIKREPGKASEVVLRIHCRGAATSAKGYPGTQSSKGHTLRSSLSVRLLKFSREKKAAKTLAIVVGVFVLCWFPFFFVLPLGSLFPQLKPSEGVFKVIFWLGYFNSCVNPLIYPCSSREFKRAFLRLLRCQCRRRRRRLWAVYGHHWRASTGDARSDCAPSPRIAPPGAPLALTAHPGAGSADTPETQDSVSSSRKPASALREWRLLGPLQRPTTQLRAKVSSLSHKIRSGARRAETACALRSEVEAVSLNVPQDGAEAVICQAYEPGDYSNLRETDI
T2 sequence (P43140 whole entry): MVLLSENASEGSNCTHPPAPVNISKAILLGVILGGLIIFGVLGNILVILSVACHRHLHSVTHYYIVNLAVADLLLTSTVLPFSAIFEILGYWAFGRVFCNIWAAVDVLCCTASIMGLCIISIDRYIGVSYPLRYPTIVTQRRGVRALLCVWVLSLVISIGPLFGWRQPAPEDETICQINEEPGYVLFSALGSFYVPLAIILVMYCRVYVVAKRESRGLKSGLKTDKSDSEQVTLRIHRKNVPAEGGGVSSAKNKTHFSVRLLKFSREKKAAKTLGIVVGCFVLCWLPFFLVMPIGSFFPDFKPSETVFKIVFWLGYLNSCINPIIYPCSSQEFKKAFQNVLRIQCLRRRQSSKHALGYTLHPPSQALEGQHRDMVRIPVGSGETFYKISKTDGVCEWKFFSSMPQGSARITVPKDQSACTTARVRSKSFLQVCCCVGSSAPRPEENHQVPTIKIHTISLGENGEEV

[5] = target: T1, 5-hydroxytryptamine receptor 1A; assay: Biased agonist activity at Gal4-VP16 transcription factor linked human 5-HT1A receptor expressed in human U2OS cells assessed as induction of beta-arrestin2 recruitment measured after 5 hrs by Tango assay; type: cell-based
[6] = target: T1, 5-hydroxytryptamine receptor 1A; assay: Biased agonist activity at human 5-HT1A receptor stably expressed in CHO-K1 cells assessed as inhibition of forskolin-induced cAMP accumulation after 40 mins by LANCE Ultra cAMP kit-based TR-FRET assay; type: functional, cell-based
[7] = target: D(2) dopamine receptor (Homo sapiens, UniProt P14416); assay: Displacement of [3H]methylspiperone from human D2 receptor stably expressed in CHO-K1 cell membranes measured after 60 mins by Microbeta2 scintillation counting method
D(2) dopamine receptor, sequence (P14416 whole entry): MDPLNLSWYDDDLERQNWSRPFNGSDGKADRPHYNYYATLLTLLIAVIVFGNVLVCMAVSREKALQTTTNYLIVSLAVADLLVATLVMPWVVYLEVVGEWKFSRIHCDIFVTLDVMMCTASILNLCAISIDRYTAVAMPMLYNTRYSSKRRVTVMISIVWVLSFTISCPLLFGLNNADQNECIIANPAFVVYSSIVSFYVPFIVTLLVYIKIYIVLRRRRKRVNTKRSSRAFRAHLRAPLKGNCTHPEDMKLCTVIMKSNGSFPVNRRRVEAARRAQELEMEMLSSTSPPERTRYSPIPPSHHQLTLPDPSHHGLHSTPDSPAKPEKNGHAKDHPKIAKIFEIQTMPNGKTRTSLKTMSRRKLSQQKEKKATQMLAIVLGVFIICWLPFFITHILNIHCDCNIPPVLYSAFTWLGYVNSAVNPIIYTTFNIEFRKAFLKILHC

[8] = target: T1, 5-hydroxytryptamine receptor 1A; assay: Displacement of [3H]8-OH-DPAT from human 5-HT1A receptor stably expressed in CHO-K1 cell membranes measured after 60 mins by Microbeta2 scintillation counting method
[9] = Hepatotoxicity in human HepG2 cells assessed as concentration required to show 50% cell viability measured after 72 hrs by celltiter 96 aqueous non-Radioactive cell proliferation assay; type: toxicity, cell-based; conditions: read-out: Activity
[10] = Permeability of the compound at 100 uM measured after 40 mins by PAMPA; type: ADME; conditions: read-out: permeability
[11] = system: Rattus norvegicus; assay: Antidepressant activity in po dosed Wistar rat assessed as reduction in immobility time treated 60 mins prior to testing and measured during the 5 min test period by Porsolt-forced swim test; type: functional; conditions: 1 h, read-out: MED
[12] = Toxicity in po dosed Wistar rat assessed as induction of lower lip retraction at 4 times MED treated for 10 mins; type: organism-based; conditions: in vivo
[13] = Drug uptake in Wistar rat brain at 0.04 to […], po by HPLC analysis; type: ADME, organism-based; conditions: in vivo, dose 0.04-0.63 mg/kg
[14] = Drug uptake in Wistar rat serum at 0.04 to […], po by HPLC analysis; type: ADME, organism-based; conditions: in vivo, dose 0.04-0.63 mg/kg
[15] = Drug uptake in Wistar rat serum at 0.31 to 1.25 mg/kg, po by HPLC analysis; type: ADME, organism-based; conditions: in vivo, dose 0.31-1.25 mg/kg
[16] = Drug uptake in Wistar rat brain at 0.31 to 1.25 mg/kg, po by HPLC analysis; type: ADME, organism-based; conditions: in vivo, dose 0.31-1.25 mg/kg
[17] = Toxicity in po dosed Wistar rat assessed as induction of lower lip retraction at 2 times MED treated for 10 mins; type: organism-based; conditions: in vivo
[18] = system: Rattus norvegicus; assay: Antidepressant activity in Wistar rat assessed as reduction in immobility time at […], po treated 60 mins prior to testing and measured during the 5 min test period in presence of WAY100635 by Porsolt-forced swim test; type: functional, organism-based

remaining at 2 h, 50 µM [1]: 54%
Compound: O=C(c1ccc(F)c(Cl)c1)N1CCC(F)(CNCCOc2ccccn2)CC1

EC50 [2]: 3.55 nM
EC50 [3]: 0.00363 nM
pKi [4]: 6.36
EC50 [5]: 0.00513 nM
EC50 [6]: 0.0132 nM
Ki [7]: > 1000 nM
Ki [8]: 0.0447 nM
Compound: O=C(c1ccc(F)c(Cl)c1)N1CCC(F)(CNCCOc2cccc3c2CCN3)CC1

pKi [4]: < 6
Compound: O=C(c1ccc(F)c(Cl)c1)N1CCC(F)(CNCCOc2ccccc2Cl)CC1

remaining at 2 h, 50 µM [1]: 54%
Papp at 40 min, 100 µM [10]: 8.6 ×10⁻⁶ cm/s
Compound: O=C(c1ccc(F)c(Cl)c1)N1CCC(F)(CNCCOc2ccccc2)CC1
CC50 at 72 h [9]: > 50000 nM

pKi [4]: < 6
Compound: COc1ccc(OCCNCC2(F)CCN(C(=O)c3ccc(Cl)c(Cl)c3)CC2)cc1

pKi [4]: < 6
Ki [7]: > 1000 nM
Ki [8]: 0.0251 nM
Compound: O=C(c1ccc(Cl)c(Cl)c1)N1CCC(F)(CNCCOc2cccc(Cl)c2)CC1

EC50 [2]: 302 nM
pKi [4]: < 6
Compound: Cc1cnc(CNCC2(F)CCN(C(=O)c3ccc(F)c(Cl)c3)CC2)nc1

pKi [4]: < 6
Compound: CN(C)c1cccc(OCCNCC2(F)CCN(C(=O)c3ccc(F)c(Cl)c3)CC2)c1

pKi [4]: 7.76
Compound: CC1(C)Cc2cccc(OCCNCC3(F)CCN(C(=O)c4ccc(F)c(Cl)c4)CC3)c2O1

remaining at 2 h, 50 µM [1]: 73%
Compound: O=C(c1ccc(F)c(Cl)c1)N1CCC(F)(CNCCOc2cccc3cccnc23)CC1

The next lines start with the compound.

Compound: O=C(c1ccc(Cl)c(Cl)c1)N1CCC(F)(CNCCOc2cccc(F)c2)CC1
EC50 [2]: 646 nM
EC50 [3]: 20 nM
pKi [4]: 6.2
EC50 [5]: 617 nM
EC50 [6]: 39.8 nM
Ki [7]: > 1000 nM
Ki [8]: 0.0204 nM

Compound: CC(=O)Nc1cccc(OCCNCC2(F)CCN(C(=O)c3ccc(Cl)c(Cl)c3)CC2)c1
pKi [4]: < 6

Compound: CC(=O)Nc1cccc(OCCNCC2(F)CCN(C(=O)c3ccc(F)c(Cl)c3)CC2)c1
remaining at 2 h, 50 µM [1]: 73%

Compound: CNc1ccccc1OCCNCC1(F)CCN(C(=O)c2ccc(F)c(Cl)c2)CC1
minimal effective dose [11]: 0.16 mg/kg
Activity [12]: Non-Toxic
pKi [4]: 6.04
Drug uptake [13]: Active
remaining at 2 h, 50 µM [1]: 54%
Drug uptake [14]: Active
Papp at 40 min, 100 µM [10]: 6.7 ×10⁻⁶ cm/s

Compound: COc1cccc2c1C(=O)c1c(O)c3c(c(O)c1C2=O)C[C@@](O)(C(=O)CO)C[C@@H]3O[C@H]1C[C@H](N)[C@H](O)[C@H](C)O1 [DOXORUBICIN]
CC50 at 72 h [9]: < 1000 nM

Compound: O=C(c1ccc(F)c(Cl)c1)N1CCC(F)(CNCCOc2cccc3[nH]ccc23)CC1
minimal effective dose [11]: 0.63 mg/kg
CC50 at 72 h [9]: > 50000 nM
Drug uptake [15]: Active
Drug uptake [16]: Active
Activity [17]: Toxic
Activity [18]: inactive
Papp at 40 min, 100 µM [10]: 4.7 ×10⁻⁶ cm/s

Compound: N#CC(C#N)=NNc1cccc(Cl)c1 [CARBONYL CYANIDE M-CHLOROPHENYLHYDRAZONE]
CC50 at 72 h [9]: < 10000 nM

Compound: O=C(c1ccc(F)c(Cl)c1)N1CCC(F)(CNCCOc2cccc(C(F)(F)F)c2)CC1
pKi [4]: < 6

Compound: O=C(c1ccc(F)c(Cl)c1)N1CCC(F)(CNCCOc2ccccc2F)CC1
pKi [4]: < 6
